Experimental data taken from ChEMBL document CHEMBL2034902, “Simplified bicyclic pyridinol analogues protect mitochondrial function” (2012).
Calls of active or inactive are those of the source. No cut-off for these calls is given here.

Legend:
CCRF-CEM [1] = experiment: Cytoprotective activity against DEM-induced ROS production in human CEM cells treated prior DEM challenge after 16 hrs by DCFH-DA-based flow cytometry relative to alpha-tocopherol; format: functional, cell-based
CCRF-CEM [2] = experiment: Cytoprotective activity against DEM-induced ROS production in human CEM cells assessed as reduction in lipid peroxidation at 2.5 to 5 uM treated prior DEM challenge measured after 16 hrs by C11-BODIPY581/591-based flow cytometry relative to alpha-tocopherol; format: functional, cell-based
CCRF-CEM [3] = experiment: Cytoprotective activity against DEM-induced ROS production in human CEM cells assessed as cells with intact mitochondrial potential at 1 uM pretreated for 16 hrs prior DEM challenge measured after 120 mins by TMRM-based flow cytometry (reference value: 94%); format: functional
CCRF-CEM [4] = experiment: Cytoprotective activity against DEM-induced ROS production in human CEM cells assessed as cells with intact mitochondrial potential at 2.5 uM pretreated for 16 hrs prior DEM challenge measured after 120 mins by TMRM-based flow cytometry (reference value: 94%); format: functional
CCRF-CEM [5] = experiment: Cytoprotective activity against DEM-induced ROS production in human CEM cells at 1 to 5 uM pretreated for 16 hrs prior DEM challenge measured after 5.5 hrs by trypan blue exclusion method; format: functional, cell-based
CCRF-CEM [6] = experiment: Cytoprotective activity against DEM-induced ROS production in human CEM cells assessed as prevention of loss of mitochondrial potential pretreated for 16 hrs prior DEM challenge measured after 120 mins by TMRM-based flow cytometry (reference value: 94%); format: functional, cell-based

| Structure (SMILES) | Activity (CCRF-CEM [1]) | Activity (CCRF-CEM [2]) | Activity (CCRF-CEM [3]) [%] | Activity (CCRF-CEM [4]) [%] | Activity (CCRF-CEM [5]) | Activity (CCRF-CEM [6]) |
| --- | --- | --- | --- | --- | --- | --- |
| CCCCCc1nc2c(c(C)c1OC(C)=O)CCN2C | inactive | inactive | 30 | 60 | Active | Dose-dependent effect |
| CCCCCCCCCCc1nc2c(c(C)c1O)CCN2C.O=C(O)C(F)(F)F | Dose-dependent effect | Active | 80 | 84 | Active | Dose-dependent effect |
| Cc1c(C)c2c(c(C)c1O)CC[C@@](C)(CCC[C@H](C)CCC[C@H](C)CCCC(C)C)O2 | Active | Active | – | – | Active | – |
| CCCCCCCCCCCCCCCCc1nc2c(c(C)c1O)CCN2C.O=C(O)C(F)(F)F | Active | Active | 46 | 70 | inactive | Dose-dependent effect |
| CCCCCCCCCCc1nc2c(c(C)c1OC(C)=O)CCN2C | Dose-dependent effect | Active | 75 | 82 | Active | Dose-dependent effect |
| CCCCCc1nc2c(c(C)c1O)CCN2C.O=C(O)C(F)(F)F | inactive | inactive | 40 | 63 | Active | Dose-dependent effect |
| CCCCCCCCCCCCCCCCc1nc2c(c(C)c1OC(C)=O)CCN2C | Active | Active | 50 | 65 | Active | Dose-dependent effect |
